Source: US10444149B2, “Fluorescent compounds as sensing agents” (OHIO NORTHERN UNIVERSITY, priority 2016, dated 2019)
Marks after values point to notes of the source that are not given here.

What was measured:
[1] = Peak absorption wavelength, peak emission wavelength and fluorescent quantum yield; format: physicochemical
Text: Table 2 provides a peak absorption wavelength (λabs maximum), peak emission wavelength (λem maximum), a fluorescent quantum yield (ΦF), and a synthesis yield for the various compounds. The synthesis yield is based on the synthetic pathway illustrated in FIG. 1.

[2] = Emission spectrum on exposure to varying amounts of (NH4)2Fe(SO4)2.6H2O; details: methanol; FIG. 6
Procedure: (§1) Compound 11 was dissolved in methanol and then exposed to varying amounts of FeCl3 (i.e., Fe^3+) or (NH4)2Fe(SO4)2.6H2O (i.e., Fe^2+). […] Therefore, Compound 11 may be used to detect Fe^3+ while in the presence of Fe^2+.

[3] = Emission spectrum on exposure to varying amounts of FeCl3; details: for total red-shift in peak emission wavelength: at saturation with Fe^3+
Procedure: Two substituted chromones (Compound 11 and Compound 20) were dissolved in methanol and exposed to varying amounts of FeCl3 (i.e., Fe^3+). FIG. 4 illustrates the shift in emission spectrum of Compound 11 with increasing amounts of Fe^3+ ions. With about 10 equivalents of Fe^3+ ions, the shift in emission spectrum is saturated, with a total of about a 30 nm red-shift in peak emission wavelength. FIG. 5 illustrates the shift in emission spectrum of Compound 20 with increasing amounts of Fe^3+ ions. With about 10 equivalents of Fe^3+ ions, the shift in emission spectrum is saturated, with a total of about a 50 nm red-shift in peak emission wavelength.
Compound 11 was dissolved in various solvents and then exposed to varying amounts of FeCl3 (i.e., Fe^3+).
as §1

[4] = Emission spectrum on exposure to varying amounts of lead nitrate
Procedure: Compound 20 was dissolved in methanol and then exposed to varying amounts of […] (i.e., Pb^2+). […] Therefore, a kit, method, system, or the like may utilize a specific solvent system for detection of lead or other Ions. Alternatively, and especially where the metal ion concentration is unknown, a kit, method, system, or the like may utilize a series of solvent systems in parallel to determine a concentration of metal ions.
A 5 μM sample of Compound 25 in 3:1 tetrahydrofuran:methanol or 2:1 tetrahydrofuran:methanol was prepared and exposed to varying amounts of Pb(NO3)2 (i.e., Pb^2+) dissolved in deionized water.

ΦF ([1]; solvent dichloromethane) | λabs maximum ([1]; solvent dichloromethane) [nm] | λem maximum ([1]; solvent dichloromethane) [nm] | SMILES | also measured
71* % | 368 | 490 | COC(=O)C(C)(C)C1Oc2ccc(C(C)C)cc2C(=O)/C1=C\NS(=O)(=O)c1ccc(C)cc1 (stereo not drawn) [Compound 21, (Z)methyl-2-(6-isopropyl-3-(((4-methylphenyl)sulfonamido)methy-lene)-4-oxochroman-2-yl)-2-methylpropanoate] | 
66* % | 390 | 529 | COC(=O)C(C)(C)C1Oc2ccc(OC)cc2C(=O)/C1=C\NS(=O)(=O)c1ccc(C)cc1 (stereo not drawn) [Compound 22, (Z)-methyl-2-(6-methoxy-3-(((4-methylphenyl)sulfonamido)methy-lene)-4-oxochroman-2-yl)-2-methylpropanoate] | 
38* % | 358 | 479 | COC(=O)C(C)(C)C1Oc2ccccc2C(=O)/C1=C\NS(=O)(=O)c1ccc(OC)cc1 (stereo not drawn) [Compound 23, (Z)methyl-2-(3-(((4-methoxyphenyl)sulfonamido)methy-lene)-4-oxochroman-2-yl)-2-methylpropanoate] | 
72* % | 367 | 492 | COC(=O)C(C)(C)C1Oc2ccc(C)cc2C(=O)/C1=C\NS(=O)(=O)c1ccc(OC)cc1 (stereo not drawn) [Compound 24, (Z)methyl-2-(3-(((4-methoxyphenyl)sulfonamido)methy-lene)-6-methyl-4-oxochroman-2-yl)-2-methylpropanoate] | 
67* % | 386 | 529 | COC(=O)CC1Oc2ccc(OC)cc2C(=O)/C1=C\NS(=O)(=O)c1ccc(OC)cc1 (stereo not drawn) [Compound 26, (Z)-methyl-2-(6-methoxy-3-(((4-methoxyphenyl)sulfonamido)methy-lene)-4-oxochroman-2-yl)acetate] | 

The next lines start with the compound.

SMILES | ΦF ([1]; solvent dichloromethane) | λabs maximum ([1]; solvent dichloromethane) [nm] | λem maximum ([1]; solvent dichloromethane) [nm] | also measured
COC(=O)C(C)(C)C1Oc2ccccc2C(=O)/C1=C\O (stereo not drawn) [Compound 5, (Z)-methyl 2-(3-(hydroxymethylene)-4-oxochroman-2-yl)-2-methylpropanoate] | 6* % | 362 | 446 | 
COC(=O)C(C)(C)C1Oc2ccc(F)cc2C(=O)/C1=C\O (stereo not drawn) [Compound 6, (Z)-methyl 2-(6-fluoro-3-(hydroxymethylene)-4-oxochroman-2-yl)-2-methylpropanoate] | 2* % | 364 | 486 | 
COC(=O)C(C)(C)C1Oc2ccc(OC)cc2C(=O)/C1=C\O (stereo not drawn) [Compound 11, (Z)-methyl-2-(3-(hydroxymethylene)-6-methoxy-4-oxochroman-2-yl)-2-methylpropanoate] | 20* % | 383 | 482 | intensity change of peak emission with increasing metal ion concentration [2]: intensity decrease; shift of peak emission wavelength [2]: does not exhibit appreciable shift; red-shift in peak emission wavelength ([3]; 1:1 methanol:water as solvent): still exhibits a red-shift in peak emission wavelength; amount of Fe^3+ ions at which the shift in emission spectrum is saturated ([3]; methanol): about 10 equivalents; intensity change of peak emission with increasing metal ion concentration ([3]; methanol, FIG. 4): intensity decrease; shift of peak emission wavelength ([3]; methanol, FIG. 4): significant red-shift; total red-shift in peak emission wavelength ([3]; methanol): ~30 nm; red-shift in peak emission wavelength ([3]; polar aprotic solvents: tetrahydrofuran, acetonitrile, acetone): did not exhibit an appreciable red-shift; red-shift in peak emission wavelength ([3]; polar protic solvents: water, methanol, mixtures thereof): exhibited an appreciable red-shift
COC(=O)C(C)(C)C1Oc2c(Br)cc(Br)cc2C(=O)/C1=C\O (stereo not drawn) [Compound 14, (Z)-methyl 2-(6,8-dibromo-3-(hydroxymethylene)-4-oxochroman-2-yl)-2-methylpropanoate] | 3* % | 371 | 451 | 
COC(=O)C(C)(C)C1Oc2ccccc2C(=O)/C1=C\NS(=O)(=O)c1ccc(C)cc1 (stereo not drawn) [Compound 15, (Z)-methyl 2-methyl-2-(3-((4-methylphenylsulfonamido)methy-lene)-4-oxochroman-2-yl)propanoate] | 37* % | 358 | 479 | 
COC(=O)C(C)(C)C1Oc2ccc(F)cc2C(=O)/C1=C\NS(=O)(=O)c1ccc(C)cc1 (stereo not drawn) [Compound 16, (Z)-methyl 2-(6-fluoro-3-((4-methylphenylsulfonamido)methy-lene)-4-oxochroman-2-yl)-2-methylpropanoate] | 33* % | 367 | 492 | 
COC(=O)C(C)(C)C1Oc2ccc(Cl)cc2C(=O)/C1=C\NS(=O)(=O)c1ccc(C)cc1 (stereo not drawn) [Compound 17, (Z)-methyl 2-(6-chloro-3-((4-methylphenylsulfonamido)methy-lene)-4-oxochroman-2-yl)-2-methylpropanoate] | 39* % | 367 | 483 | 
COC(=O)C(C)(C)C1Oc2ccc(Br)cc2C(=O)/C1=C\NS(=O)(=O)c1ccc(C)cc1 (stereo not drawn) [Compound 18, (Z)-methyl 2-(6-bromo-3-((4-methylphenylsulfonamido)methy-lene)-4-oxochroman-2-yl)-2-methylpropanoate] | 34* % | 343 | 483 | 
COC(=O)C(C)(C)C1Oc2ccc(C)cc2C(=O)/C1=C\NS(=O)(=O)c1ccc(C)cc1 (stereo not drawn) [Compound 19, (Z)-methyl 2-methyl-2-(6-methyl-3-((4-methylphenylsulfonamido)methy-lene)-4-oxochroman-2-yl)propanoate] | 70* % | 367 | 492 | ΦF ([1]; solvent acetonitrile): 8** %; λabs maximum ([1]; solvent acetonitrile): 380 nm; λem maximum ([1]; solvent acetonitrile): 468 nm; ΦF ([1]; solvent cyclohexane): 27*** %; λabs maximum ([1]; solvent cyclohexane): 364 nm; λem maximum ([1]; solvent cyclohexane): 479 nm
CCc1ccc2c(c1)C(=O)/C(=C\NS(=O)(=O)c1ccc(C)cc1)C(C(C)(C)C(=O)OC)O2 (stereo not drawn) [Compound 20, (Z)-methyl 2-(6-ethyl-3-((4-methylphenylsulfonamido)methy-lene)-4-oxochroman-2-yl)-2-methylpropanoate] | 73* % | 370 | 490 | ΦF ([1]; solvent acetonitrile): 16** %; λabs maximum ([1]; solvent acetonitrile): 369 nm; λem maximum ([1]; solvent acetonitrile): 496 nm; ΦF ([1]; solvent cyclohexane): 30*** %; λabs maximum ([1]; solvent cyclohexane): 364 nm; λem maximum ([1]; solvent cyclohexane): 481 nm; amount of Pb^2+ at max shift in peak emission wavelength ([4]; 1:1 tetrahydrofuran:methanol): about 5 equivalents; amount of Pb^2+ at max shift in peak emission wavelength ([4]; 3:1 tetrahydrofuran:methanol): about 3 equivalents; shift in peak emission wavelength ([4]; THF alone): no appreciable shift in peak emission wavelength; amount of Pb^2+ at which the shift in peak emission wavelength maxes out ([4]; methanol): 10 equivalents; shift in peak emission wavelength at 1 equivalent Pb^2+ ([4]; methanol): no appreciable shift; shift in peak emission wavelength at 1 equivalent Pb^2+ ([4]; mixed tetrahydrofuran/methanol): appreciable shift; red-shift in peak emission wavelength ([3]; 1:1 methanol:water as solvent): does not; amount of Fe^3+ ions at which the shift in emission spectrum is saturated ([3]; methanol): about 10 equivalents; total red-shift in peak emission wavelength ([3]; methanol): ~50 nm
